Here are results for 29 compounds from US20260355184A1, “SMALL MOLECULE DEGRADERS OF HIV-1 TAT PROTEIN” (priority 2022, published 2026).

Read-outs that look alike come from different tables or passages of the source.

One series deals with HIV NL4.3 strain. Put plainly: HIV infectivity assay, reporter cell line HeLa-CD4-LTR-LacZ, β-Gal activity (Tat protein inhibition). Type of series: cell-based, HIV-1 (NL4.3). As to conditions: Human immunodeficiency virus 1, read-out: Infectivity IC50, HeLa-CD4-LTR-LacZ. The gist of the method: (§1)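 HeLa-CD4-LTR-LacZ reporter cells (β-Gal under HIV 5′ LTR) infected with HIV NL4.3; β-Gal activity read 72 h post infection, with parallel Cell-Titer-Glo viability. OM10.1 carry a single wild-type provirus; ACH-2 a single provirus with TAR C37T mutation, defective Tat-TAR feedback.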

Series [1] is described as follows: Cytotoxicity assay, Cell-Titer-Glo, HeLa-CD4-LTR-LacZ. As to conditions: human, hela-cd4-ltr-lacz cells, Infectivity CC50, HeLa-CD4-LTR-LacZ. The method in brief:
as §1

By IC50 is commonly meant the midpoint of a concentration-inhibition curve. As usually defined, the CC50 is the concentration that lowers cell viability or growth by half. The low end stands for greater toxicity to the cells, the high end for lower toxicity to the cells. `Cc1cccc(-n2cc(C(=O)NCCCN3CCCC3=O)c3ccccc32)c1` [compound 46824]: the IC50 in the series with HIV NL4.3 strain (analogs of TT-44881 (Table 1)) was above 100 µM. The CC50 in series [1] (analogs of TT-44881 (Table 1)) is above 100 µM.
For the compound `COc1ccc(C(F)(F)F)cc1NC(=O)Cn1cccc(Cl)c1=O` [compound 46763], the IC50 in the series on HIV NL4.3 strain (analogs of TT-44863 (Table 2)) was 50 to 100 µM. The CC50 in series [1] (analogs of TT-44863 (Table 2)) is above 100 µM.
Consider `O=C(NCCCn1ccnc1)c1cc2cc(Cl)ccc2[nH]1` [3-41], for which, in the series with HIV NL4.3 strain (analogs of TT-44856 (Table 3)), the IC50 was above 100 µM. Besides, the CC50 in series [1] (analogs of TT-44856 (Table 3)) is above 100 µM.
`O=C(NCCCN1CCCC1=O)c1nc2ccccc2[nH]c1=O` [compound 46931]: in the series on HIV NL4.3 strain (analogs of TT-44881 (Table 1)), the IC50 fell in the range of 10 to 30 µM. The compound also returned a half-maximal cytotoxic concentration (CC50) in series [1] (analogs of TT-44881 (Table 1)) above 100 µM.
For the compound `COc1ccc(C(F)(F)F)cc1NC(=O)Cn1cc(C#N)cc(Cl)c1=O` [compound 47018], the IC50 with HIV NL4.3 strain (analogs of TT-44863 (Table 2)) was above 50 µM. Also, the CC50 in series [1] (analogs of TT-44863 (Table 2)) is above 50 µM.
For `CC(=O)c1cccc(CNC(=O)c2cn(-c3ccccc3)c3ccccc23)c1` [compound 41967], the IC50 in the series with HIV NL4.3 strain (analogs of TT-44881 (Table 1)) is above 100 µM. Moreover, the CC50 in series [1] (analogs of TT-44881 (Table 1)) is above 100 µM.
Take `Cc1ccc(CC(=O)NCCCn2cnc3ccccc32)cc1` [Z102452176]: the IC50 with HIV NL4.3 strain (analogs of TT-44856 (Table 3)) is 10 to 30 µM. Also, the CC50 in series [1] (analogs of TT-44856 (Table 3)) is above 100 µM.
On to `CC(C(=O)NCCCc1cccnc1)(c1ccccc1)c1ccccc1` [3-76], for which the IC50 in the series with HIV NL4.3 strain (analogs of TT-44856 (Table 3)) was in the range of 1 to 30 µM. Moreover, the CC50 in series [1] (analogs of TT-44856 (Table 3)) lay in the range of 10 to 30 µM.
For `CC(NC(=O)C(c1ccccc1)c1ccccc1)c1ccc(-n2ccnc2)cc1` (stereo not shown) [Z27307031], in that order: 1 to 20 µM and above 100 µM.
Turning to `COc1ccccc1NC(=O)Cn1cc(C(F)(F)F)cc(Cl)c1=O` [compound 46605], the half-maximal inhibitory concentration (IC50) with HIV NL4.3 strain (analogs of TT-44863 (Table 2)) is above 100 µM. Further, the CC50 in series [1] (analogs of TT-44863 (Table 2)) is above 100 µM.
`O=C(NCCCN1CCCC1=O)c1nnc(-c2ccccc2)c2ccccc12` [compound 46934]: the IC50 in the series with HIV NL4.3 strain (analogs of TT-44881 (Table 1)) was above 100 µM. Besides, the CC50 in series [1] (analogs of TT-44881 (Table 1)) was above 100 µM.
Consider `O=C(NCCCn1ccnc1)c1nn(-c2ccccc2)c2c1CCC2` [3-63], for which the IC50 in the series on HIV NL4.3 strain (analogs of TT-44856 (Table 3)) was in the range of 1 to 10 µM. In series [1] (analogs of TT-44856 (Table 3)), this compound came in with a cytotoxic concentration (CC50) of 1 to 10 µM.
As to `Cc1nccn1CCCNC(=O)C(C)(c1ccccc1)c1ccccc1` [3-52], the IC50 in the series on HIV NL4.3 strain (analogs of TT-44856 (Table 3)) was 1 to 10 µM. The same compound had a CC50 in series [1] (analogs of TT-44856 (Table 3)) above 100 µM.
Take `N#Cc1c(NCCCN2CCCC2=O)c2ccccc2[nH]c1=O` [compound 46822]: the IC50 in the series with HIV NL4.3 strain (analogs of TT-44881 (Table 1)) is above 100 µM. The compound further registered a CC50 in series [1] (analogs of TT-44881 (Table 1)) above 100 µM.
In the case of `O=C1CCc2c(C(=O)NCCCN3CCCC3=O)nn(-c3ccccc3)c2C1` [GB-11], the IC50 in the series on HIV NL4.3 strain (analogs of TT-44881 (Table 1)) lay in the range of 10 to 20 µM. This compound also yielded a CC50 in series [1] (analogs of TT-44881 (Table 1)) above 100 µM.
For the compound `CC(C)c1nccn1CCCNC(=O)C(C)(c1ccccc1)c1ccccc1` [3-54], in the series on HIV NL4.3 strain (analogs of TT-44856 (Table 3)), the half-inhibitory concentration (IC50) lay within 1 to 20 µM. The same compound registered a CC50 in series [1] (analogs of TT-44856 (Table 3)) of 50 to 100 µM.
With `N#Cc1ccc(C(F)(F)F)cc1NC(=O)Cn1cc(C(F)(F)F)cc(Cl)c1=O` [compound 47061], the IC50 in the series with HIV NL4.3 strain (analogs of TT-44863 (Table 2)) is above 100 µM. In series [1] (analogs of TT-44863 (Table 2)), this compound returned a CC50 above 100 µM.
As to `O=C(Cn1cc(C(F)(F)F)cc(Cl)c1=O)Nc1cccc(C(F)(F)F)c1` [compound 46748], the IC50 with HIV NL4.3 strain (analogs of TT-44863 (Table 2)) is above 100 µM. This compound had a CC50 in series [1] (analogs of TT-44863 (Table 2)) above 100 µM.
For the compound `CCCN(CCCN1CCCC1=O)C(=O)c1nn(-c2ccccc2)c2c1CCC2` [GB-06], the half-maximal inhibitory concentration (IC50) with HIV NL4.3 strain (analogs of TT-44881 (Table 1)) is 5 to 30 µM. The compound further returned a CC50 in series [1] (analogs of TT-44881 (Table 1)) above 100 µM.
On to `CC(C(=O)NCC1CCCNC1)(c1ccccc1)c1ccccc1` (stereo not shown) [3-59], for which the IC50 in the series with HIV NL4.3 strain (analogs of TT-44856 (Table 3)) lay within 1 to 30 µM. For the same compound, in series [1] (analogs of TT-44856 (Table 3)), the CC50 is above 100 µM.
For `CCCC(C(=O)NCCCn1c(C)nc2ccccc21)(c1ccccc1)c1ccccc1` [3-66], in that order: 20 to 50 µM and 20 to 50 µM.
Take `O=C(NCCCN1CCCC1=O)c1nn(-c2ccccc2)c2c1CCCC2` [compound 46819]: in the series with HIV NL4.3 strain (analogs of TT-44881 (Table 1)), the IC50 was above 50 µM. In series [1] (analogs of TT-44881 (Table 1)), this compound came in with a CC50 above 50 µM.
As to `CCCN(CCCN1CCCC1=O)C(=O)c1cc(C)n(-c2ccccc2)n1` [GB-17], in the series with HIV NL4.3 strain (analogs of TT-44881 (Table 1)), the 50% inhibitory concentration (IC50) is above 100 µM. In addition, the CC50 in series [1] (analogs of TT-44881 (Table 1)) was above 100 µM.
Take `CC(C(=O)NCCc1ccccc1)(c1ccccc1)c1ccccc1` [3-46]: in the series on HIV NL4.3 strain (analogs of TT-44856 (Table 3)), the IC50 was 50 to 100 µM. Also, the CC50 in series [1] (analogs of TT-44856 (Table 3)) was in the range of 20 to 50 µM.
For the compound `O=C(NCCCN1CCCC1=O)c1nn(-c2ccccc2)cc1C(F)(F)F` [compound 46979], the IC50 in the series with HIV NL4.3 strain (analogs of TT-44881 (Table 1)) was in the range of 50 to 100 µM. The CC50 in series [1] (analogs of TT-44881 (Table 1)) was above 100 µM.
`O=C1N(CCCn2ccnc2)CCC1(c1ccccc1)c1ccccc1` [3-73]: the IC50 in the series with HIV NL4.3 strain (analogs of TT-44856 (Table 3)) was in the range of 10 to 50 µM. The compound also returned a CC50 in series [1] (analogs of TT-44856 (Table 3)) above 100 µM.
With `O=C(NCCCN1CCCC1=O)c1nn(-c2ccccc2)cc1C1CC1` [compound 47011], the IC50 in the series with HIV NL4.3 strain (analogs of TT-44881 (Table 1)) was above 100 µM. In series [1] (analogs of TT-44881 (Table 1)), this compound yielded a CC50 above 100 µM.
As to `O=C(NCCCN1CCCC1=O)c1nc2ccccc2n1-c1ccccc1` [compound 47051], the IC50 in the series with HIV NL4.3 strain (analogs of TT-44881 (Table 1)) was above 25 µM. In addition, the CC50 in series [1] (analogs of TT-44881 (Table 1)) is above 25 µM.
With `CCCC(=O)NC(C(=O)NCCCn1ccnc1)(c1ccccc1)c1ccccc1` [3-60], in the series with HIV NL4.3 strain (analogs of TT-44856 (Table 3)), the IC50 was above 100 µM. This compound also registered a half-maximal cytotoxic concentration (CC50) in series [1] (analogs of TT-44856 (Table 3)) above 100 µM.
